For one compound, polymorph form stability results are on record in patent US20240009116A1, “DRUG DELIVERY SYSTEM COMPRISING A NON-STEROIDAL ANTI-INFLAMMATORY (NSAID) AND A PROGESTOGENIC COMPOUND AND METHODS FOR MANUFACTURING” (Bayer OY, priority 2015, published 2024).

The series can be described thus: Polymorph form during filament preparation and printing (i.a. X-ray diffraction). The series is classed as physicochemical. The text has this: As drug indomethacin was used. Indomethacin can appear in different polymorphic forms, which are differently bioavailable. In the current examples the stable form y-indomethacin was used. […] Other NSAID's such as meloxicam, piroxicam, naproxen, celecoxib, diclofenac, tenoxicam, nimesulide, lornoxicam and indomethacin are likewise suitable, of which indomethacin is particularly preferred.

As for `COc1ccc2c(c1)c(CC(=O)O)c(C)n2C(=O)c1ccc(Cl)cc1` [y-indomethacin, indomethacin], the polymorph form stability entry is “the polymorph form does not change during filament preparation and printing”.
